Experiments:
[1] = target: soluble epoxide hydrolase (sEH); conditions: cited from earlier work
[2] = system: LnCap prostate cancer cells; test: MTT assay LnCap; type: cell-based; conditions: up to 40 μM
human VSM cells [3] = test: direct counting of trypsinized VSM cells by hemocytometer; type: cell-based; conditions: 12 μM, 10% serum, FIG. 1c
Method: FIG. 1c. CDU (12 μM) or an equal volume of DMSO vehicle (as a control) was added concomitantly with 10% serum and the cells were counted by hemocytometer after trypsinization. Proliferation Assays. [^3H]thymidine incorporation assays were performed. To evaluate proliferation of suspension cells, cells were resuspended at 2×10^5 cells/mL in culture medium and the medium supplemented with the compound of interest or the corresponding vehicle. At the indicated times, cell density was estimated using light microscopy and a hemocytometer. To directly evaluate the proliferation of adherent cells, 2×10^4 cells were plated in a 35 mm culture dish and allowed to adhere overnight. The medium was then supplemented with the compound of interest or the corresponding vehicle. At the indicated times, the number of cells in the plate was calculated by subjecting the cells to trypsinization and the cell density quantitated by light microscopy using a hemocytometer.

human VSM cells [4] = test: trypan blue exclusion, VSM cells; type: cell-based; conditions: 12 μM
Method: Evaluation of Cell Membrane Integrity and Toxicity. To evaluate the toxicity of compounds, as indicated by cellular trypan blue permeability, cells were plated in 35 mm dishes. After two days, the medium in the dish was replaced with fresh medium supplemented with the compound of interest or vehicle. At the indicated time post-treatment, the supernatant was removed and adherent cells were removed using trypsin. After dislodging the adherent cells, the cell suspension was pooled with the supernatant and centrifuged. The resulting cell pellet was resuspended and a trypan blue solution (0.4% in normal saline) was added to the aliquot. After incubating for approximately 5 minutes, the sample was evaluated by light microscopy. To evaluate lactate dehydrogenase (LDH) release, cells were harvested and plated onto 24 well plates and serum starved for one to two days. Test compounds were added and after 65 hours, media was removed for measurement of LDH activity. LDH activity was determined by NADH oxidation using Sigma Tox-7 in vitro toxicology kit and reported as the amount of LDH activity in the media.

A549 lung cancer cells = test: MTT assay A549; type: cell-based; conditions: up to 40 μM
HL-60 cells = test: HL-60 cell proliferation (hemocytometer count); type: cell-based, human; conditions: 12 μM, 24 and 48 h, FIG. 2
Method: Human promyelocytic HL-60 were incubated in serum-containing medium and CDU (12 μM) or DMSO vehicle was added at time zero. At 24 and 48 h after CDU addition the cells were counted using a hemocytometer. Error bars represent SD. Data shown are representative of two independent experiments. Cell Culture. Human aortic smooth muscle cells were obtained from Clonetics (San Diego Calif.) at passage 3 and were maintained in MCBD 131 media supplemented with 2.5% FBS, 5 mg/L bovine insulin, 2 ug/L human recombinant EGF, 1 ug/L human recombinant PDGF-BB (“PDGF” is platelet derived growth factor, which is composed of a dimer of two chains, the A chain and the B chain, “PDGF-BB is a 24.3 kD homodimer of two B chains), 100 u/ml of penicillin, 100 u/ml streptomycin, and 2.5 ug/ml amphotericin B. The cells were growth-arrested by placing them in quiescence medium containing MCDB 131 medium, 20 mM HEPES (pH 7.4), 5 mg/ml transferrin, 0.5 mg/ml BSA, 50 U/ml penicillin, 50 U/ml streptomycin, and 2.5 ug/ml amphotericin B. Quiescence medium was changed daily for 1-2 days before each experiment. HL-60 cells were obtained from ATCC or from D. Hyde (UC Davis). […] At the indicated times, the number of cells in the plate was calculated by subjecting the cells to trypsinization and the cell density quantitated by light microscopy using a hemocytometer.

[5] = system: human foreskin fibroblasts; test: [3H]thymidine incorporation, human foreskin fibroblasts; type: cell-based; conditions: PDGF-BB stimulated, similar concentrations to VSM cells, FIG. 1d
Method: FIG. 1d. Human foreskin fibroblasts were treated similarly to VSM cells in FIG. 1a and [^3H]thymidine incorporation into DNA was assessed.

cyclin E = test: Western blot cyclin E in VSM cells; type: cell-based, human; conditions: 10 μM, PDGF-BB, 6 to 18 h, FIG. 7
Method: Human VSM cells were grown to 80-90% confluence and serum-starved as in FIG. 1. […] Data shown are representative of at least two independent experiments. Western Blots. After treatment with appropriate compounds for the indicated times, cells were lysed, protein concentrations were determined by the Lowry method, and equal protein quantities were electrophoresed and Western blotted.

ERK42/44 phosphorylation = test: Western blot phospho-MAPK in VSM cells; type: cell-based, human; conditions: 10 μM, 4 h after PDGF-BB, FIG. 6
Method: Human VSM cells were grown to 80-90% confluence and serum-starved as in FIG. 1. Four hours after stimulation with PDGF-BB (30 ng/ml) in the presence or absence of CDU (10 μM), the cells were lysed and equal protein quantities were electrophoresed and immunoblotted with phospho-MAPK antibody. Data shown are representative of three independent experiments Western Blots. After treatment with appropriate compounds for the indicated times, cells were lysed, protein concentrations were determined by the Lowry method, and equal protein quantities were electrophoresed and Western blotted.

Structure (SMILES): CCCCCCCCCCCCNC(=O)NC1CCCCC1 [CDU, 1-cyclohexyl-3-dodecyl urea]
- Ki [1]: 20 ± 2 nM
- toxicity, MTT assay [2]: no toxicity observed
- cell proliferation by direct counting of trypsinized cells (human VSM cells [3]): Inhibition of cell proliferation
- cells stained blue (trypan blue) (human VSM cells [4]; 8 h): 3.4%
- cells stained blue (trypan blue) (human VSM cells [4]; 24 h): 3.0%
- toxicity, MTT assay (A549 lung cancer cells): no toxicity observed
- proliferation of HL-60 cells (HL-60 cells): proliferated to a similar extent
- [3H]thymidine incorporation [5]: inhibited
- effect on cyclin E levels (cyclin E): minimal effect
- PDGF-stimulated ERK42/44 phosphorylation (ERK42/44 phosphorylation): no change

Reference: patent US20030139469A1, “Use of inhibitors of soluble epoxide hydrolase to inhibit vascular smooth muscle cell proliferation” (THE REGENTS OF THE UNIVERSITY OF CALIFORNIA, priority 2002, published 2003)
